Assay results: patent US20230123334A1, “AMINO LIPID COMPOUND, PREPARATION METHOD THEREFOR, AND APPLICATION THEREOF” (SHENZHEN SHENXIN BIOTECHNOLOGY CO., LTD., priority 2020, published 2023)

Tested on: HEK293 cells
Assay: Preliminary screening as DNA vectors, GFP transfection of HEK293 cells
Type: cell-based
Details: amino lipid/DOPE liposome with 75 ng plasmid DNA (psin-EGFP-IRES-Puro); number of GFP-expressing cells divided by total nuclei (Hoechst)
In short: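 First, amino lipid and DOPE were vortexed in sodium acetate buffer (pH 5.6) to form liposomes. Next, these were held with 75 ng EGFP plasmid at room temperature for 30 min. Finally, HEK293 cells were added, cultured at 37° C., Hoechst-stained, and GFP+/total nuclei scored by imaging.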

SMILES | Absolute DNA transfection efficiency in HEK293 cells
CCCCCCCCCCCCCCCSc1nc(NCCCCCCCCC)nc(NCCN2CCCCC2)n1 [S15N9 D4] | 4.5%
CCCCCCCCCCCCCCCSc1nc(NCCCCCCCCC)nc(NCCN2CCN(C)CC2)n1 [S15N9 D5] | 17.5%
CCCCCCCCCCCCCCCSc1nc(NCCCCCCCCC)nc(NCCCN(C)C)n1 [S15N9 D6] | 23.1%
CCCCCCCCCCCCCCCSc1nc(NCCCCCCCCC)nc(NCCN(CC)CC)n1 [S15N9 D7] | 16.4%
CCCCCCCCCCCCCCCSc1nc(NCCCCCCCCC)nc(NCCCN2CCOCC2)n1 [S15N9 D8] | 10.1%
CCCCCCCCCCCCCCCSc1nc(NCCCCCCCCC)nc(NCCCN2CCN(C)CC2)n1 [S15N9 D9] | 13.4%
CCCCCCCCCCCCCCCSc1nc(NCCCCCCCCC)nc(NCC2CCN(C)CC2)n1 [S15N9 D10] | 35.1%
CCCCCCCCCCCCCCCSc1nc(NCCCCCCCCCCC)nc(NCCN(C)C)n1 [S15N11 D1] | 12.9%
CCCCCCCCCCCCCCCSc1nc(NCCCCCCCCCCC)nc(NCCN2CCOCC2)n1 [S15N11 D2] | 19.3%
CCCCCCCCCCCCCCCSc1nc(NCCCCCCCCCCC)nc(NCCN2CCCC2)n1 [S15N11 D3] | 20.9%
CCCCCCCCCCCCCCCSc1nc(NCCCCCCCCCCC)nc(NCCN2CCCCC2)n1 [S15N11 D4] | 8.9%
CCCCCCCCCCCCCCCSc1nc(NCCCCCCCCCCC)nc(NCCN2CCN(C)CC2)n1 [S15N11 D5] | 11.8%
CCCCCCCCCCCCCCCSc1nc(NCCCCCCCCCCC)nc(NCCCN(C)C)n1 [S15N11 D6] | 12.9%
CCCCCCCCCCCCCCCSc1nc(NCCCCCCCCCCC)nc(NCCN(CC)CC)n1 [S15N11 D7] | 9.3%
CCCCCCCCCCCCCCCSc1nc(NCCCCCCCCCCC)nc(NCCCN2CCOCC2)n1 [S15N11 D8] | 6.1%
CCCCCCCCCCCCCCCSc1nc(NCCCCCCCCCCC)nc(NCCCN2CCN(C)CC2)n1 [S15N11 D9] | 11.9%
CCCCCCCCCCCCCCCSc1nc(NCCCCCCCCCCC)nc(NCC2CCN(C)CC2)n1 [S15N11 D10] | 16.6%
CCCCCCCCCCCCCCCSc1nc(NCCCCCCCCCCCC)nc(NCCN(C)C)n1 [S15N12 D1] | 4.9%
CCCCCCCCCCCCCCCSc1nc(NCCCCCCCCCCCC)nc(NCCN2CCOCC2)n1 [S15N12 D2] | 0.0%
CCCCCCCCCCCCCCCSc1nc(NCCCCCCCCCCCC)nc(NCCN2CCCC2)n1 [S15N12 D3] | 11.5%
CCCCCCCCCCCCCCCSc1nc(NCCCCCCCCCCCC)nc(NCCN2CCCCC2)n1 [S15N12 D4] | 0.1%

SMILES | Absolute DNA transfection efficiency in HEK293 cells
CCCCCCCCCCCCCCCSc1nc(NCCCCCCCCCCCC)nc(NCCN2CCN(C)CC2)n1 [S15N12 D5] | 5.7%
CCCCCCCCCCCCCCCSc1nc(NCCCCCCCCCCCC)nc(NCCCN(C)C)n1 [S15N12 D6] | 6.4%
CCCCCCCCCCCCCCCSc1nc(NCCCCCCCCCCCC)nc(NCCN(CC)CC)n1 [S15N12 D7] | 5.9%
CCCCCCCCCCCCCCCSc1nc(NCCCCCCCCCCCC)nc(NCCCN2CCOCC2)n1 [S15N12 D8] | 1.5%
CCCCCCCCCCCCCCCSc1nc(NCCCCCCCCCCCC)nc(NCCCN2CCN(C)CC2)n1 [S15N12 D9] | 3.3%
CCCCCCCCCCCCCCCSc1nc(NCCCCCCCCCCCC)nc(NCC2CCN(C)CC2)n1 [S15N12 D10] | 4.3%
CCCCCCCCCCCCCCCSc1nc(NCCCCCCCCCCCCC)nc(NCCN(C)C)n1 [S15N13 D1] | 0.4%
CCCCCCCCCCCCCCCSc1nc(NCCCCCCCCCCCCC)nc(NCCN2CCOCC2)n1 [S15N13 D2] | 0.0%
CCCCCCCCCCCCCCCSc1nc(NCCCCCCCCCCCCC)nc(NCCN2CCCC2)n1 [S15N13 D3] | 4.2%
CCCCCCCCCCCCCCCSc1nc(NCCCCCCCCCCCCC)nc(NCCN2CCCCC2)n1 [S15N13 D4] | 0.0%
CCCCCCCCCCCCCCCSc1nc(NCCCCCCCCCCCCC)nc(NCCN2CCN(C)CC2)n1 [S15N13 D5] | 1.9%
CCCCCCCCCCCCCCCSc1nc(NCCCCCCCCCCCCC)nc(NCCCN(C)C)n1 [S15N13 D6] | 2.7%
CCCCCCCCCCCCCCCSc1nc(NCCCCCCCCCCCCC)nc(NCCN(CC)CC)n1 [S15N13 D7] | 5.5%
CCCCCCCCCCCCCCCSc1nc(NCCCCCCCCCCCCC)nc(NCCCN2CCOCC2)n1 [S15N13 D8] | 0.2%
CCCCCCCCCCCCCCCSc1nc(NCCCCCCCCCCCCC)nc(NCCCN2CCN(C)CC2)n1 [S15N13 D9] | 3.2%
CCCCCCCCCCCCCCCSc1nc(NCCCCCCCCCCCCC)nc(NCC2CCN(C)CC2)n1 [S15N13 D10] | 0.0%
CCCCCCCCCCCCCCCNc1nc(NCCN(C)C)nc(SCCCCCCCCCCCCCCC)n1 [S15N15 D1] | 0.6%
CCCCCCCCCCCCCCCNc1nc(NCCN2CCOCC2)nc(SCCCCCCCCCCCCCCC)n1 [S15N15 D2] | 0.0%
CCCCCCCCCCCCCCCNc1nc(NCCN2CCCC2)nc(SCCCCCCCCCCCCCCC)n1 [S15N15 D3] | 0.8%
CCCCCCCCCCCCCCCNc1nc(NCCN2CCCCC2)nc(SCCCCCCCCCCCCCCC)n1 [S15N15 D4] | 0.5%
CCCCCCCCCCCCCCCNc1nc(NCCN2CCN(C)CC2)nc(SCCCCCCCCCCCCCCC)n1 [S15N15 D5] | 0.4%

SMILES | Absolute DNA transfection efficiency in HEK293 cells
CCCCCCCCCCCCCCCNc1nc(NCCCN(C)C)nc(SCCCCCCCCCCCCCCC)n1 [S15N15 D6] | 0.0%
CCCCCCCCCCCCCCCNc1nc(NCCN(CC)CC)nc(SCCCCCCCCCCCCCCC)n1 [S15N15 D7] | 0.4%
CCCCCCCCCCCCCCCNc1nc(NCCCN2CCOCC2)nc(SCCCCCCCCCCCCCCC)n1 [S15N15 D8] | 0.1%
CCCCCCCCCCCCCCCNc1nc(NCCCN2CCN(C)CC2)nc(SCCCCCCCCCCCCCCC)n1 [S15N15 D9] | 0.5%
CCCCCCCCCCCCCCCNc1nc(NCC2CCN(C)CC2)nc(SCCCCCCCCCCCCCCC)n1 [S15N15 D10] | 0.3%
CCCCCCCCCCCCCCCCNc1nc(NCCN(C)C)nc(SCCCCCCCCCCCCCCC)n1 [S15N16 D1] | 1.3%
CCCCCCCCCCCCCCCCNc1nc(NCCN2CCOCC2)nc(SCCCCCCCCCCCCCCC)n1 [S15N16 D2] | 0.0%
CCCCCCCCCCCCCCCCNc1nc(NCCN2CCCC2)nc(SCCCCCCCCCCCCCCC)n1 [S15N16 D3] | 0.6%
CCCCCCCCCCCCCCCCNc1nc(NCCN2CCCCC2)nc(SCCCCCCCCCCCCCCC)n1 [S15N16 D4] | 0.4%
CCCCCCCCCCCCCCCCNc1nc(NCCN2CCN(C)CC2)nc(SCCCCCCCCCCCCCCC)n1 [S15N16 D5] | 0.2%
CCCCCCCCCCCCCCCCNc1nc(NCCCN(C)C)nc(SCCCCCCCCCCCCCCC)n1 [S15N16 D6] | 0.0%
CCCCCCCCCCCCCCCCNc1nc(NCCN(CC)CC)nc(SCCCCCCCCCCCCCCC)n1 [S15N16 D7] | 0.4%
CCCCCCCCCCCCCCCCNc1nc(NCCCN2CCOCC2)nc(SCCCCCCCCCCCCCCC)n1 [S15N16 D8] | 0.0%
CCCCCCCCCCCCCCCCNc1nc(NCCCN2CCN(C)CC2)nc(SCCCCCCCCCCCCCCC)n1 [S15N16 D9] | 0.2%
CCCCCCCCCCCCCCCCNc1nc(NCC2CCN(C)CC2)nc(SCCCCCCCCCCCCCCC)n1 [S15N16 D10] | 0.3%
CCCCCCCCCCCCCCCCCCNc1nc(NCCN(C)C)nc(SCCCCCCCCCCCCCCC)n1 [S15N18 D1] | 0.6%
CCCCCCCCCCCCCCCCCCNc1nc(NCCN2CCOCC2)nc(SCCCCCCCCCCCCCCC)n1 [S15N18 D2] | 0.0%
CCCCCCCCCCCCCCCCCCNc1nc(NCCN2CCCC2)nc(SCCCCCCCCCCCCCCC)n1 [S15N18 D3] | 0.7%
CCCCCCCCCCCCCCCCCCNc1nc(NCCN2CCCCC2)nc(SCCCCCCCCCCCCCCC)n1 [S15N18 D4] | 0.4%
CCCCCCCCCCCCCCCCCCNc1nc(NCCN2CCN(C)CC2)nc(SCCCCCCCCCCCCCCC)n1 [S15N18 D5] | 0.3%
